What all share (type): cell-based, human
In experiment [1] the test system is TTP. The experiment is described as follows: Total TTP protein by capillary electrophoresis in LPS-stimulated macrophages. The conditions noted are these: 4 h or 24 h. The method, then: Monocytes and macrophages were pre-treated for 1 h with DMSO or compound, followed by LPS stimulation (100 ng/mL) for 4 or 24 h (includes 1 h pre-treatment). Medium from the cultured macrophages was used for cytokine analysis using Magpix magnetic beads (Catalog HCYTO – 60K; Millipore Sigma, Burlington, MA). Cell pellets from the macrophage cultures were collected for western blot analysis using capillary electrophoresis to analyze the effect on TTP, with glyceraldehyde 3-phosphate dehydrogenase (GAPDH) used as the house-keeping protein in the capillary electrophoresis. Antibodies against total TTP (CST#7162 Rabbit Monoclonal antibody) and GAPDH (CST#5174 Rabbit Monoclonal antibody) were used to detect the respective proteins.

Experiment [2] concerns LPS-stimulated monocytes. The experiment is described as follows: Cytokine secretion in LPS-stimulated monocytes. The conditions noted are these: LPS 100 ng/mL 4 or 24 h. As to the method:
(§1) Culture supernatants were centrifuged, and the supernatants were collected and analyzed for selected cytokines and chemokines using Milliplex Magpix assays (catalog HCYTO – 60K; Millipore Sigma, Burlington, MA). Levels of proinflammatory cytokines TNF and MCP-1 for the monocytes and macrophages were quantified using specific ELISA kits (R&D, NJ, USA) according to the manufacturer’s recommendations. Data were processed using Milliplex Analyst, and significance was calculated using the one-way analysis of variance (ANOVA) with Dunnett’s post-test algorithms in GraphPad Prism version 5.01. PBMCs were isolated from buffy coat using the Ficoll gradient method. Monocytes were isolated using the […] Technologies Inc. kit (catalog number 19058; Vancouver, BC, Canada). […] Macrophages were then plated and allowed to acclimate for 24 h. […] Medium from the cultured macrophages was used for cytokine analysis using Magpix magnetic beads (Catalog HCYTO – 60K; Millipore Sigma, Burlington, MA). Cell pellets from the macrophage cultures were collected for western blot analysis using capillary electrophoresis to analyze the effect on TTP, with glyceraldehyde 3-phosphate dehydrogenase (GAPDH) used as the house-keeping protein in the capillary electrophoresis. Antibodies against total TTP (CST#7162 Rabbit Monoclonal antibody) and GAPDH (CST#5174 Rabbit Monoclonal antibody) were used to detect the respective proteins.

Experiment [3] concerns LPS-stimulated PBMCs. The experiment is described as follows: Cytokine production in LPS-stimulated PBMCs. Conditions: 0.3, 1, and 3 μM.
For experiment [4], the system named is LPS-stimulated macrophages. Nature of the experiment: Cytokine secretion in LPS-stimulated monocyte-derived macrophages. Conditions: LPS 100 ng/mL 4 or 24 h. As to the method: as §1

From article PMC9386913 (Arthritis Research & Therapy, 2022) come the findings set out here.

Consider `CCOCc1cnc(Cl)nc1Oc1ccc2c(ccc3sc4c(c32)NC[C@@H](C)NC4=O)n1` [CC-99677], for which the “Total TTP levels (surrogate for TTP phosphorylation state)” value in experiment [1] is given as “dose-dependent reduction in total TTP levels”. Also, in experiment [2], the IL-1β secretion entry is recorded as “concentration-dependent inhibition”, the IL-6 secretion result is “concentration-dependent inhibition” and the TNF secretion result is recorded as “strong concentration-dependent inhibition”. In experiment [3] (PBMCs from AS patients and healthy volunteers), the GM-CSF production result is on record as “inhibited GM-CSF in PBMCs from AS patients to similar levels as those seen in healthy volunteers”. Also, the TNF production entry in experiment [3] (PBMCs from AS patients, 1 h pretreatment, LPS 50 ng/mL) was “concentration-dependent inhibition of TNF production”. In addition, the TNF secretion result in experiment [4] is given as “strong concentration-dependent inhibition”. In addition, in experiment [4] (more potent than in monocytes), the IL-1β secretion result is listed as “concentration-dependent inhibition” and the IL-6 secretion result is “concentration-dependent inhibition”.
